Reference: patent publication US20260027073A1, “USE OF SMALL-MOLECULE COMPOUND HAVING NAPHTHYLAMINE STRUCTURE” (HANGZHOU PHECDAMED CO., LTD., priority 2023, published 2026)

What was measured:
[1] = system: Natural Aging POF model (NA-POF); assay: Natural aging ovarian insufficiency (NA-POF); type: in vivo, C57BL/6J mice; conditions: for body weight / ovarian coefficient / ovarian weight: FIG. 71; for serum E2 levels: FIG. 73
Description: The Natural Aging POF model (NA-POF) simulates conditions of progressive ovarian degeneration. Female C57BL/6J mice of 9-10 months of age were purchased and raised to 12 months old, and then the mice were randomly divided into three groups, namely, the control group (Control, 0.5% CMC-Na by oral gavage, n=8), the TJ01-013-treated group (TJ01-013, 30 mg/kg TJ01-013 by oral gavage, n=8), the I-14-1 treatment group (I-14-1, 30 mg/kg I-14-1 by oral gavage, n=8), and were administered daily for 30 days. At the endpoint of the experiment, body weight, ovarian weight, ovarian organ coefficient, serum hormone E2 and FSH levels in mice were measured. The body weight and bilateral ovarian wet weight of each group of mice were weighed with an electronic balance and an analytical balance respectively, and the ovarian organ coefficient of each group of mice was calculated according to the body weight of the mice (g) and the wet weight (mg) of the bilateral ovaries. […] After the experiment reached the end point, orbital blood collection was carried out, and the blood was centrifuged at 12000 g for 10 min after standing still at room temperature for 45 min, and the supernatant (serum) was taken, and the levels of E2 and FSH in serum were detected by ELISA.

UUO model mice = assay: UUO-induced renal fibrosis; type: in vivo
Description: The UUO model is currently the most widely used experimental animal model for studying renal tubulointerstitial fibrosis. By ligating a unilateral ureter to cause obstruction of the renal drainage system, leading to acute alterations in renal function and chronic damage to renal structure, it simulates renal interstitial injury caused by ureteral obstruction, which is common in clinical practice. The modeling was performed as follows: • (1) On the first day of the test, mice were given 50 mg/kg sodium pentobarbital anesthesia, after confirming that the mice were under anesthesia and preparing and disinfecting the skin, an incision of about 1 cm at 1 cm left and below of the costovertebral angle was made, the left side of the kidney was fully exposed and the ureter was sought downward along the renal hilum, and the ureter was ligated with a 6-0 nylon thread, and after ligation, the muscle and the skin layers were sutured layer by layer. In the sham group, only the kidney was exposed, but it was not ligated, and sutured directly. The experiments were divided into a sham group (Sham, oral gavage of vehicle), a model control group (vehicle, oral gavage of vehicle), a TJ01-013 10 mg/kg treatment group ([…]), and the vehicle used is 0.5% CMC-Na, administered at a dose of 10 ml/kg, and the frequency of administration was once a day. The drug was administered continuously for 7 days after UUO surgery, at the endpoint of the test, immediately after the mice were put to death, saline was perfused through the heart until the blood in the kidneys was completely drained and the kidneys were transformed from a dark red color to khaki. The operated kidney on the side was collected, the kidney was cut through the short axis of the kidney, and the kidney tissue samples were stored separately according to the requirements of the test. • (2) Renal histopathology
Kidney tissues were fixed with 4% paraformaldehyde for 48 hours, paraffin-embedded, sectioned at a thickness of 4 μm, and Masson stained. Specific experimental procedures were performed as described previously, and after sectioning and scanning the images, the results were analyzed semi-quantitatively using Image J software.
Total RNA was extracted from kidney tissue samples by Tissue RNA Rapid Extraction Kit, and the concentration and purity of RNA were determined by micro-ultraviolet spectrophotometer, and then operated according to the instruction steps of HiScript® II 1st Strand cDNA Synthesis Kit, the cDNA was reversely transcribed with 1 μg of total amount of […], followed by a 15 ul amplification system, with 5 μL of cDNA, 7.5 μL of 2×SYBR Premix Ex Taq™, 0.3 μL of each of forward and reverse primers, and the rest was supplemented with double-distilled water. The conditions of the Bio-Rad reaction were 95° C. for 5 min, denaturation at 95° C. for 10 seconds, annealing/extension at 60° C. for 30 seconds for 40 cycles, and 65° C. for 15 min. The expression of the target gene was calculated by 2-ΔΔCt relative quantification. The Ct value of the target gene was first corrected by the internal reference gene (β-actin), and then compared with the control group to derive the relative expression level. […]

MRL/lpr mice = assay: Lupus nephritis in MRL/lpr mice; type: in vivo
Description: The 10-week-old female MRL/lpr mice were fed in an SPF environment with a light-dark cycle of 12 h and the temperature maintained at 24-26° C. The mice were randomly divided into three groups according to their body weights, namely, the model group (Control, n=8, 0.5% CMC-Na by oral gavage), TJ01-013 10 mg/kg treatment group (10 mg/kg, n=8, 10 mg/kg TJ01-013 by oral gavage), TJ01-013 30 mg/kg treatment group (30 mg/kg, n=8, 30 mg/kg TJ01-013 by oral gavage), the animals were adaptively fed for one week, and were administered every day starting from 11th week, and the animals were monitored for the concentration of randomized urinary proteins and urinary creatinine of the mice in each group every 2 weeks starting from week 11, the mouse urine protein to creatinine concentration ratio (uPCR) was calculated. The animals were administered for a total of 10 weeks, and blood was collected from the orbits at the end of administration and serum was collected. Serum creatinine, urea nitrogen, serum ANA and anti-dsDNA concentrations were detected.
Urine protein and urinary creatinine levels were detected by utilizing Caumas Brilliant Blue staining.
Serum creatinine and urea nitrogen were detected by biochemical analyzer.
Serum ANA and anti-dsDNA levels were detected by ELISA.
Kidney tissue was placed in a homogenizer and minced into pieces thoroughly with clean scissors; 400 μl of lysate was added to the homogenizer, homogenized and then placed on ice, and the grinding was repeated several times on ice until the kidney tissue was ground as thoroughly as possible; after 30 min of lysis, the lysate was transferred to a 1.5 ml centrifuge tube with a pipette, and then centrifuged for 10 min at 12,000 rpm under the condition of 4° C., and the supernatant was taken and stored at −20° C. Inflammatory factors TNFα and IL-6 in kidney tissue proteins were detected using ELISA.

[2] = vs UUO+Vehicle, western blot, FIG. 31

Compound: O=C(O)C[S+]([O-])c1cc(NS(=O)(=O)c2ccc(Br)cc2)c2ccccc2c1O (centres unmarked) [I-1]
- body weight ([1]; 30 mg/kg daily 30 days): no significant change
- ovarian coefficient ([1]; 30 mg/kg daily 30 days): significantly elevated
- ovarian weight ([1]; 30 mg/kg daily 30 days): significantly elevated
- serum FSH level ([1]; 30 mg/kg daily 30 days, FIG. 72): decreased significantly
- serum E2 levels ([1]; 30 mg/kg daily 30 days): increased significantly
- improvement of ovarian function, TJ0113 compared with I-14-1 ([1]; both 30 mg/kg): more effective
- Collagen volume fraction %, renal cortex (Masson) (UUO model mice; 10 mg/kg TJ01-013, no significant effect vs model control 4.67%, FIG. 29): 5.58%
- Collagen volume fraction %, renal cortex (Masson) (UUO model mice; 30 mg/kg TJ01-013, vs model control 4.67%, p<0.05, FIG. 29): 0.61%
- fibrosis in the renal medulla (UUO model mice; FIG. 29): reducing effect on fibrosis
- autophagic vesicles with double-layer or multi-layer membrane structure in the cell (TEM) (UUO model mice; FIG. 32): more autophagic vesicles
- morphology of renal tubular epithelial cells and mitochondria (TEM) (UUO model mice; relative to normal and UUO, FIG. 32): in between the former two
- Col1a1 gene mRNA expression in renal tissue (UUO model mice; vs UUO+Vehicle, FIG. 30): certain tendency to inhibit
- Fn1 gene mRNA expression in renal tissue (UUO model mice; vs UUO+Vehicle, FIG. 30): significantly reduced
- collagen type I (collagen I) protein level in kidney (UUO model mice; [2]): significantly reduced
- fibronectin FN protein level in kidney (UUO model mice; [2]): significantly reduced
- urine protein to creatinine concentration ratio (uPCR) (MRL/lpr mice; 10 weeks of administration, 10 and 30 mg/kg groups, FIG. 74): significantly lower
- serum creatinine level (MRL/lpr mice; vs model group, FIG. 75): significantly decreased
- serum urea nitrogen level (MRL/lpr mice; vs model group, FIG. 75): significantly decreased
- serum ANA level (MRL/lpr mice; vs model group, FIG. 76): significantly decreased
- serum dsDNA level (MRL/lpr mice; vs model group, FIG. 77): significantly decreased
- IL-6 level in kidney tissues (MRL/lpr mice; vs model group, FIG. 78): significantly reduced
- TNFα level in kidney tissues (MRL/lpr mice; vs model group, FIG. 78): significantly reduced

Compound: O=C(O)C[S+]([O-])c1cc(NS(=O)(=O)c2ccc(C(F)(F)F)cc2)c2ccccc2c1O (centres unmarked) [I-14-1]
- body weight ([1]; 30 mg/kg daily 30 days): no significant change
- ovarian coefficient ([1]; 30 mg/kg daily 30 days): rising trend
- ovarian weight ([1]; 30 mg/kg daily 30 days): significantly elevated
- serum E2 levels ([1]; 30 mg/kg daily 30 days): increased significantly
